Among the data in PubChem BioAssay AID464 (The Scripps Research Institute Molecular Screening Center, 2006) are CC50 values, retold here.

Calls of active or inactive are those of the source.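 How the source made its calls: active means Compounds that kill half the cells at a concentration of 5 micromolar or below, from the fitted or estimated CC50; inactive means CC50 above 5 micromolar.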

The test system of this assay is Jurkat E6.1 viability, ATP luminescence, 48 h. The assay is described as follows: viability loss in Jurkat T cells – cell-based, ATP luminescence, 48 h, 60K MLSMR, cytotoxicity control, dose response (AID 464).
With `COc1ccc(-c2nnnn2-c2ccccc2OC)cc1`, the CC50 is 8.67 µM (inactive).
As for `CCN(Cc1ccccc1)S(=O)(=O)c1ccc(C(=O)Nc2nnc(C3CC3)o2)cc1`, the CC50 was 32.5 µM (inactive).
In the case of `Cc1ccc(C(=O)CCNc2ccc(F)c(Cl)c2)o1` it was 6.26 µM (inactive); in that of `CCN=c1scc(-c2ccc3c(c2)NC(=O)CO3)n1N=C1CCCC1`, 8.47 µM (inactive).
For `CC(=O)Nc1ccc(S(=O)(=O)n2cnc3cc(C)c(C)cc32)cc1`, the CC50 is 24.8 µM (inactive).
Next, `CCOc1ccccc1N1CC(O)=C(c2nc3ccccc3s2)C1=N`: 1.84 µM; `CCN(Cc1ccncc1)S(=O)(=O)c1ccc(C(C)=O)cc1`: 9.44 µM (inactive).
For the molecule `CC1CC(C)CN(S(=O)(=O)c2ccc(C(=O)NCCCn3ccnc3)cc2)C1` (stereo not given), the CC50 was 1.08 µM.
With `O=S(=O)(CCSc1ccccn1)c1nc2ccccc2s1`, the CC50 was 11.8 µM (inactive).
`COC(=O)c1[nH]c2c(c1C)C(=O)CC(c1cc(OC)ccc1OC)C2` (stereo not given): the cytotoxic concentration (CC50) is 3.89 µM.
As for `COc1ccc(CCNc2c(C)c(C)nc3ncnn23)cc1`, the CC50 is > 13 µM (inactive).
In the case of `CC(C)Oc1ccccc1C1CC(=O)Nc2cc3c(cc21)OCO3` (stereo not given) it was 0.812 µM.
Next, `O=C(NC1CC1)c1cc2c(s1)-c1ccccc1OC2`: 15.6 µM (inactive); `Nc1nonc1-c1nc2ccccc2n1Cc1ccccc1`: 6.41 µM (inactive); `c1ccc(-c2nc(N3CCCCCC3)c3ccccc3n2)nc1`: 10.1 µM (inactive).
In the case of `CCN(CC)c1ccc(NC(=O)c2cc(OC)cc(OC)c2)c(C)c1` it was 1.11 µM.
With `CCc1nnc(NC(=O)c2ccc(S(=O)(=O)N(CC)Cc3ccccc3)cc2)o1`, the CC50 was 26 µM (inactive).
Next, `CCOc1ccc(-c2[nH]ncc2-c2ccc(OC)c(OC)c2)c(O)c1`: 1.21 µM.
In the case of `CCCc1ccc(-c2ccc(F)c(N)c2)nc1` it was > 40 µM (inactive); in that of `COc1cccc(N2C(N)=NC(N)=NC2(C)C)c1`, 2.58 µM.
Regarding `CCOC(=O)c1c(COc2ccccc2)oc2ccc(O)cc12`, the CC50 was > 40 µM (inactive).
In the case of `COc1ccc(Cl)cc1S(=O)(=O)n1cnc2ccccc21` it was > 40 µM (inactive); in that of `Cc1cccc(Cn2c(NCCO)nc3c2c(=O)n(C)c(=O)n3C)c1`, 2.32 µM.
In the case of `Cc1cc(C)c2ccc(N)nc2c1O` it was 6.83 µM (inactive); in that of `COc1cc(NC(=O)c2cc(-c3cccs3)on2)cc(OC)c1OC`, 12.8 µM (inactive); in that of `CCNc1nc2c(c(=O)n(C)c(=O)n2C)n1Cc1ccc(Cl)cc1`, 4.09 µM.
In the case of `COC(=O)/C=C/S(=O)(=O)c1ccc(NC(C)=O)cc1` it was 2.31 µM; in that of `CCOC(=O)CS(=O)(=O)c1nc(-c2ccc(F)cc2)cc(C(F)(F)F)n1`, 3.81 µM; in that of `COCc1cc(CN2CCCC2)c(O)c2ncccc12`, > 13 µM (inactive).
In the case of `CCCNS(=O)(=O)c1ccc(OCC(=O)N2CCN(Cc3ccc4c(c3)OCO4)CC2)cc1`, the CC50 is 7.96 µM (inactive).
`N#CC(C#N)=c1ccc2c(c1)NC1(CCCCC1)N=2`: the CC50 is 8.08 µM (inactive).
Next, `CCOC(=O)N1CCN(C(=O)C2CCCN(Cc3nc(-c4ccc(Cl)cc4)oc3C)C2)CC1` (stereo not given): 4.64 µM; `CC1CN(S(=O)(=O)c2ccc(NC(=O)c3cc(-c4ccccc4O)n[nH]3)cc2)CC(C)O1` (stereo not given): > 13 µM (inactive); `Cc1cc(C)n2nc(SCC(=O)c3cc(C)n(-c4cc(C)on4)c3C)nc2n1`: 29.4 µM (inactive).
Regarding `CCc1c(C)nc2ncnn2c1NCCc1ccc(OC)cc1`, the CC50 is 0.901 µM.
For `CCOc1ccc(S(=O)(=O)Nc2cc(OC)ccc2OC)cc1`, the CC50 was 0.145 µM.
In the case of `CCc1nnc(NC(=O)CSc2nnc(-c3ccccc3O)n2-c2ccc(C)cc2C)s1` it was 4.43 µM; in that of `CCc1nnc(NC(=O)c2ccc(S(=O)(=O)N(CC(C)C)CC(C)C)cc2)o1`, 29.8 µM (inactive); in that of `CC1CC(C)CN(S(=O)(=O)c2ccc(C(=O)Nc3nnc(-c4cccs4)o3)cc2)C1` (stereo not given), 12.9 µM (inactive).
Next, `O=C(Cn1cnc2c(cnn2-c2ccccc2)c1=O)NCc1ccccc1`: 9.12 µM (inactive); `COc1cccc(C2C=C(c3ccc(OC)cc3OC)Nc3nnnn32)c1` (stereo not given): 18.4 µM (inactive); `CS(=O)(=O)N1CCc2cc(S(=O)(=O)Nc3ccc4c(c3)OCCO4)ccc21`: 29.1 µM (inactive).
Next, `COc1cc(C(=O)N2CCN(c3ccc(C)cc3C)CC2)cc(OC)c1OC`: 1.69 µM; `O=C(CSc1nnnn1-c1ccc2c(c1)OCO2)NCc1ccccc1`: > 4.4 µM (inactive); `Nc1nc(-c2ccccc2)cc(N2CCCCC2)n1`: 0.877 µM.
Take `COC(=O)c1cc2ccsc2n1CC(=O)Nc1cc(Cl)ccc1OC`: the CC50 was > 4.4 µM (inactive).
Next, `C=CCN(C(=O)c1ccccc1)c1ccc(OC)cc1`: 9.5 µM (inactive); `Cc1ccc(C)c(-n2nnnc2Sc2nnnn2-c2ccccc2)c1`: 5.87 µM (inactive); `CN(C)S(=O)(=O)c1ccc(C(=O)Nc2nc(-c3cccs3)cs2)cc1`: 21.1 µM (inactive).
Next, `Cc1ccc(S(=O)(=O)Nc2cccc3ncccc23)s1`: 10.3 µM (inactive).
In the case of `N#CCCn1cc(/C=N/O)c(-c2ccc(-c3ccccc3)cc2)n1` it was 11.6 µM (inactive); in that of `N#CC1=C(N)Oc2cc(N)ccc2C1C1CCCCC1` (stereo not given), 2.49 µM.
Take `O=C(Nc1nc(-c2ccccn2)cs1)c1ccc(Cl)s1`: the CC50 was 2.12 µM.
Consider `CCOC(=O)c1[nH]c(C)c(C(=O)Nc2ccccc2F)c1C`, for which the CC50 is 1.42 µM.
In the case of `COc1cccc(C2=CC(c3cccc(OC)c3OC)n3nnnc3N2)c1` (stereo not given) it was 16.5 µM (inactive).
Next, `Cc1nn(-c2ccccc2)c(C)c1C(=O)OCC(=O)c1c(N)n(CC(C)C)c(=O)n(C)c1=O`: 9.53 µM (inactive); `CCOC(=O)Nc1cc(=O)c2ccccc2o1`: > 4.4 µM (inactive).
In the case of `CN(C)c1ccc(C2C=C(c3ccc(Cl)cc3OC(F)F)Nc3ncnn32)cc1` (stereo not given) it was 3.56 µM; in that of `CCOC(=O)C1=C(N)n2c(s/c(=C\c3cccs3)c2=O)=C(C(=O)OCC)C1c1cccs1` (stereo not given), 4.39 µM.
With `CCOC(=O)c1ccc(NC(=O)c2ccc(CN3CCOCC3)cc2)cc1`, the CC50 is 5.13 µM (inactive).
For the molecule `Cc1ccc2[nH]c(-c3ccccc3)cc(=O)c2c1`, the CC50 was 0.324 µM.
Take `C=CCOC(=O)c1[nH]c2c(c1C)C(=O)CC(c1ccco1)C2` (stereo not given): the cytotoxic concentration (CC50) was 0.196 µM.
On to `Cc1cc(NC(=O)CSc2nc(-c3ccco3)cc(C(F)(F)F)n2)no1`, for which the CC50 was 0.233 µM.
Next, `c1ccc(CNc2ncnc3ccccc23)cc1`: 4.68 µM.
With `CCc1ccc(NS(=O)(=O)c2cc(OC)ccc2OC)cc1`, the CC50 was 16.6 µM (inactive).
In the case of `CC(=O)c1ccc(Oc2cc(C)nc(-n3nc(C)cc3C)n2)cc1` it was 0.293 µM; in that of `COc1ccc(C(=O)c2ccc(N(C)C)cc2)c(OC)c1`, 1.5 µM; in that of `CSC1=C(C#N)C(c2ccc(Cl)cc2)C2=C(CC(C)(C)CC2=O)N1` (stereo not given), 14.7 µM (inactive).
In the case of `O=C(NCc1cccs1)C1CCN(c2ccc(S(=O)(=O)N3CCOCC3)cc2Cl)CC1` it was 0.875 µM; in that of `COc1ccccc1N1CCN(C(=O)C2c3ccccc3Oc3ccccc32)CC1`, 1.27 µM; in that of `COc1cc(C2C3=C(Nc4ncnn42)c2ccccc2CC3)cc(OC)c1OC` (stereo not given), 3.67 µM.
Next, `CSC(=Nc1ccccc1)c1c(O)n(C)c(=O)n(C)c1=O`: 17.8 µM (inactive).
Regarding `CCCCOC(=O)c1[nH]c2c(c1C)C(=O)CC(c1cc(OC)c(OC)c(OC)c1)C2` (stereo not given), the CC50 is 18.7 µM (inactive).
Next, `c1ccc2c(c1)[nH]c1c(N3CCCC3)ncnc12`: 13.3 µM (inactive); `COc1ccc(Cn2c(=O)oc3ccc(C)cc32)cc1OC`: 13.1 µM (inactive); `Cc1cc(NC(=O)CCS(=O)(=O)c2nc(-c3ccccc3)cc(C(F)(F)F)n2)no1`: 5.13 µM (inactive).
Next, `COc1ccc(C2=Nn3c(nnc3-c3ccc(OC)cc3)SC2)cc1`: 0.325 µM.
Next, `CCCCN(CC)S(=O)(=O)c1ccc(C(=O)Nc2nnc(-c3cccs3)o2)cc1`: 13.9 µM (inactive); `O=C1C2C3C=CC(CO)(O3)C2C(=O)N1c1ccccc1-c1ccccc1` (stereo not given): 6.29 µM (inactive).
In the case of `CCCCOc1ccccc1C1CC(=O)NC2=C1C(=O)CCC2` (stereo not given), the CC50 is 0.872 µM.
Next, `CCCCNc1ncnc2c1cnn2-c1ccccc1`: 2.39 µM.
Next, `Cc1cccc(N2CCN(C(=O)c3ccncc3)CC2)c1C`: 2.78 µM; `CCN(CC)S(=O)(=O)c1cccc(C(=O)Nc2ccccc2)c1`: 18.3 µM (inactive); `C=CS(=O)(=O)c1ccc(Oc2ccc(S(=O)(=O)C=C)cc2)cc1`: 1.9 µM.
In the case of `CC1=C(C(=O)OCc2ccc3c(c2)OCO3)C(c2ccc(F)cc2)NC(=O)N1` (stereo not given) it was 3.57 µM; in that of `N#CC1=C2SCC(O)(c3ccccc3)N2C(=O)CC1c1cccs1` (stereo not given), 0.361 µM; in that of `CCN(CC)c1ccc(-c2nn3c(-c4ccccc4OC)nnc3s2)cc1`, 0.115 µM.
Regarding `CN(C)c1ccc(-c2nn3c(-c4ccccc4Cl)nnc3s2)cc1`, the 50% cytotoxic concentration (CC50) was 0.312 µM.
On to `Cc1nc(C)c2c(=O)cc(-c3ccccc3)[nH]c2n1`, for which the CC50 is 4.05 µM.
Next, `N=c1c2c(-c3ccccc3)c(-c3ccccc3)n(Cc3ccco3)c2ncn1Cc1ccco1`: 23.7 µM (inactive); `Cc1ccc(Nc2cc(C)nn2-c2nc(C)cc(=O)[nH]2)cc1`: 1.31 µM; `COc1ccccc1-c1nnc2sc(-c3ccc(N(C)C)cc3)nn12`: 0.0343 µM.
In the case of `CCOC(=O)C1CCN(CC(=O)Nc2c(C(=O)OC)[nH]c3ccc(Cl)cc23)CC1` it was 31.2 µM (inactive); in that of `Cc1ccnc(SCC(=O)Nc2sc3c(c2C#N)CCCC3)n1`, > 40 µM (inactive).
As for `COc1cc(C)c(C(C)C)cc1S(=O)(=O)n1cnc(C)c1`, the CC50 is 7.61 µM (inactive).
